According to ChEMBL document CHEMBL1909046, “DrugMatrix in vitro pharmacology data”:

How the values were obtained:
[1] = biological target: T1, Substance-K receptor (Homo sapiens, UniProt P21452); type: cell membranes, CHO, Membrane; conditions: cho; further: in other assays of this panel Not Active means under 50% inhibition at 10 µM
T1 sequence (P21452 whole entry): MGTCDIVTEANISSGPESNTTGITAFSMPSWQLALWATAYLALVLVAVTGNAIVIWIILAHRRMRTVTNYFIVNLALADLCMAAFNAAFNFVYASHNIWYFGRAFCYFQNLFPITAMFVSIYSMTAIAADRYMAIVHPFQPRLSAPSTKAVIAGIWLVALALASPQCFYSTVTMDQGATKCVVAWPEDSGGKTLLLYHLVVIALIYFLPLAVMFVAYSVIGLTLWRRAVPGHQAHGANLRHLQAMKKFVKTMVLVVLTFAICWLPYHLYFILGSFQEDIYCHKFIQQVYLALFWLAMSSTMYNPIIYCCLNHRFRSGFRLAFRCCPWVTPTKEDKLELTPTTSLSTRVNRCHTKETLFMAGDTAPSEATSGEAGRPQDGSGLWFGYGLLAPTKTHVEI

[2] = biological target: Kappa-type opioid receptor (Homo sapiens, UniProt P41145); assay: DRUGMATRIX: Opiate kappa (OP2, KOP) radioligand binding (ligand: [3H] Diprenorphine); type: cell membranes, HEK293, Membrane; conditions: hek293; Not Active = under 50% inhibition at 10 µM
[3] = DRUGMATRIX: GABAA, Chloride Channel, TBOB radioligand binding (ligand: [3H] TBOB); type: cell membranes, Rattus norvegicus, Wistar, Cerebral cortex, Membrane; conditions: Not Active = under 50% inhibition at 10 µM
[4] = DRUGMATRIX: Platelet-Derived Growth Factor (PDGF) radioligand binding (ligand: [125I] PDGF); type: cell-based; conditions: nih3t3; Not Active = under 50% inhibition at 10 µM
[5] = DRUGMATRIX: Glutamate, NMDA, Phencyclidine radioligand binding (ligand: [3H] TCP); type: cell membranes, Rattus norvegicus, Wistar, Cerebral cortex, Membrane; conditions: Not Active = under 50% inhibition at 10 µM
[6] = DRUGMATRIX: Potassium Channel [KATP] radioligand binding (ligand: [3H] Glyburide); type: cell membranes, Membrane; conditions: hit-t15; Not Active = under 50% inhibition at 10 µM
[7] = DRUGMATRIX: Glutamate, Kainate radioligand binding (ligand: [3H] Kainic acid); type: cell membranes, Rattus norvegicus, Wistar, Brain, Membrane; conditions: Not Active = under 50% inhibition at 10 µM
[8] = biological target: T2, Thromboxane-A synthase (Homo sapiens, UniProt P24557); assay: biochemical; type: tissue-based, Platelet;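 further: enzyme inhibition assay with PGH2 supplied as substrate; in other assays of this panel Not Active means under 50% inhibition at 10 µM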
T2 sequence (P24557 whole entry): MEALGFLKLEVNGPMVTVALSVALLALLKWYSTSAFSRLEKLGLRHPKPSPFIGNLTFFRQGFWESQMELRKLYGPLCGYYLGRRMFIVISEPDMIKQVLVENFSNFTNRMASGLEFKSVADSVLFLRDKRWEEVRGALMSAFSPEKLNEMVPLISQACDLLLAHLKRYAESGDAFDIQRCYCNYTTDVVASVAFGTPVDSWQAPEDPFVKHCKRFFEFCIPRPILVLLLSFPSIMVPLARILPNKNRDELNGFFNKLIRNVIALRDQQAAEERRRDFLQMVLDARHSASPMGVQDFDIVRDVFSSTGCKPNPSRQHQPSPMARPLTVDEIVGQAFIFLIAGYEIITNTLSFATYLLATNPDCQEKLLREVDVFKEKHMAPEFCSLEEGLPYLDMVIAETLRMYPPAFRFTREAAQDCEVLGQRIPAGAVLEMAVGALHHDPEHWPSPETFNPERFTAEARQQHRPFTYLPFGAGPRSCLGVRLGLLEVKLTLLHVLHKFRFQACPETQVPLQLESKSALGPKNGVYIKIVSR

[9] = biological target: 5-hydroxytryptamine receptor 4 (Cavia porcellus, UniProt O70528); type: cell membranes, Dunkin-Hartley, Striatum, Membrane; further: in other assays of this panel Not Active means under 50% inhibition at 10 µM
[10] = biological target: Beta-2 adrenergic receptor (Homo sapiens, UniProt P07550); assay: DRUGMATRIX: Adrenergic beta2 radioligand binding (ligand: [3H] CGP-12177); type: cell membranes, Membrane; conditions: cho; Not Active = under 50% inhibition at 10 µM
Sequence of Beta-2 adrenergic receptor (P07550 whole entry): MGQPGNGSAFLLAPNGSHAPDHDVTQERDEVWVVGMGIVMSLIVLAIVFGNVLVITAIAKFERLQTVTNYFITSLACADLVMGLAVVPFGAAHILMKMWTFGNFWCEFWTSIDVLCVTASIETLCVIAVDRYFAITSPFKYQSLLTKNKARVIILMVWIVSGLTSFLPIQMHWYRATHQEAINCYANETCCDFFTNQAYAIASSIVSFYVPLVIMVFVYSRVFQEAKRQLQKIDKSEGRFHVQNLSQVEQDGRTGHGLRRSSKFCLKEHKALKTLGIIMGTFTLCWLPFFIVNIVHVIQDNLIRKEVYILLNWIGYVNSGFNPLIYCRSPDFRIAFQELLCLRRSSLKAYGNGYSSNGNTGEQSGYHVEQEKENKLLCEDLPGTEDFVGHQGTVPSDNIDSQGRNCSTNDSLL

Sequence of 5-hydroxytryptamine receptor 4 (O70528 whole entry): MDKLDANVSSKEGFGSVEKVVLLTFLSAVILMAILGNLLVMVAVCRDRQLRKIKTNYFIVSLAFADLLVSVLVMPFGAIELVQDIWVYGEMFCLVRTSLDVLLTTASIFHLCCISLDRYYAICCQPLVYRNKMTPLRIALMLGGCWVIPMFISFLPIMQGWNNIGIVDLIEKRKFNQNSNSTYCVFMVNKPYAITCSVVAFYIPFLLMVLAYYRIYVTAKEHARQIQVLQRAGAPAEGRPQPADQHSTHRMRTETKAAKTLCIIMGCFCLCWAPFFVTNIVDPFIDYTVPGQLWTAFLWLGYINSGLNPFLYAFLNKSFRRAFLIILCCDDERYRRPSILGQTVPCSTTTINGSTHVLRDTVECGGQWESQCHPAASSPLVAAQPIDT
Sequence of Kappa-type opioid receptor (P41145 whole entry): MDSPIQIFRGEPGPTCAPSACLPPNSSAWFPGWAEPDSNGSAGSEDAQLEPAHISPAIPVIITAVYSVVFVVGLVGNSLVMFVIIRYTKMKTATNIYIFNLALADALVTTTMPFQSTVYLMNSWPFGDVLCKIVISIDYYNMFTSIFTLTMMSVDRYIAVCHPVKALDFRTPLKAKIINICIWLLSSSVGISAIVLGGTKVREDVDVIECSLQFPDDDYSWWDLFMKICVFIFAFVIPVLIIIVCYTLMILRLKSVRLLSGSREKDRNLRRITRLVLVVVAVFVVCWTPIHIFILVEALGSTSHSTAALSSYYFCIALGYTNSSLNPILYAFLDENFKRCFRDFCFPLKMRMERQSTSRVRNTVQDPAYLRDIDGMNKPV

In the case of CC(=O)N[C@@H]1[C@H](Oc2c3cc4cc2Oc2ccc(cc2Cl)[C@@H](O[C@@H]2O[C@@H](CO)[C@@H](O)[C@H](O)[C@@H]2NC(C)=O)[C@@H]2NC(=O)[C@H](NC(=O)[C@@H]4NC(=O)[C@H]4NC(=O)[C@@H](Cc5ccc(c(Cl)c5)O3)NC(=O)[C@H](N)c3ccc(O)c(c3)Oc3cc(O)cc4c3)c3ccc(O)c(c3)-c3c(O[C@H]4O[C@H](CO)[C@@H](O)[C@@H](O)[C@@H]4O)cc(O)cc3[C@@H](C(=O)O)NC2=O)O[C@@H](CO)[C@@H](O)[C@@H]1O, the IC50 [1] is reported as “Not Active”, the IC50 [2] is reported as “Not Active” and the IC50 [3] is reported as “Not Active”. For the same compound, the Ki [3] was “Not Active”, the IC50 [4] was “Not Active” and the Ki [4] was “Not Active”. For the same compound, the IC50 [5] was “Not Active”, the Ki [5] was “Not Active” and the IC50 [6] was “Not Active”. For the same compound, the Ki [6] was “Not Active”, the IC50 [7] was “Not Active” and the Ki [7] was “Not Active”. For the same compound, the IC50 ([8]; platelet) was “Not Active”, the IC50 [9] was “Not Active” and the IC50 [10] was “Not Active”.
With O=C1CCC(N2C(=O)c3ccccc3C2=O)C(=O)N1 (stereo not given) [THALIDOMIDE] the IC50 [1] was “Not Active”, the IC50 [2] was “Not Active” and the IC50 [3] was “Not Active”. For the same compound, the Ki [3] was “Not Active”, the IC50 [4] was “Not Active” and the Ki [4] was “Not Active”. For the same compound, the IC50 [5] was “Not Active”, the Ki [5] was “Not Active” and the IC50 [6] was “Not Active”. The Ki [6] was “Not Active”, the IC50 [7] was “Not Active” and the Ki [7] was “Not Active”. The IC50 ([8]; platelet) was “Not Active”, the IC50 [9] was “Not Active” and the IC50 [10] was “Not Active”.
With CC[C@]1(O)C[C@@H]2CN(CCc3c([nH]c4ccccc34)[C@@](C(=O)OC)(c3cc4c(cc3OC)N(C)[C@H]3[C@@](O)(C(=O)OC)[C@H](OC(C)=O)[C@]5(CC)C=CCN6CC[C@]43[C@@H]65)C2)C1 [VINBLASTINE] the IC50 [1] was “Not Active”, the IC50 [2] was “Not Active” and the IC50 [3] was “Not Active”. The Ki [3] was “Not Active”, the IC50 [4] was “Not Active” and the Ki [4] was “Not Active”. The IC50 [5] was “Not Active”, the Ki [5] was “Not Active” and the IC50 [6] was “Not Active”. The Ki [6] was “Not Active”, the IC50 [7] was “Not Active” and the Ki [7] was “Not Active”. The IC50 ([8]; read-out: IC50) was 1.87 µM, the IC50 [9] was “Not Active” and the IC50 [10] was “Not Active”.
With CC1=C(CC(=O)O)c2cc(F)ccc2/C1=C\c1ccc([S+](C)[O-])cc1 (stereo not given) the IC50 [1] was “Not Active”, the IC50 [2] was “Not Active” and the IC50 [3] was “Not Active”. For the same compound, the Ki [3] was “Not Active”, the IC50 [4] was “Not Active” and the Ki [4] was “Not Active”. The IC50 [5] was “Not Active”, the Ki [5] was “Not Active” and the IC50 [6] was “Not Active”. The Ki [6] was “Not Active”, the IC50 [7] was “Not Active” and the Ki [7] was “Not Active”. The IC50 ([8]; platelet) was “Not Active”, the IC50 [9] was “Not Active” and the IC50 [10] was “Not Active”.
In the case of CC(C)C[C@H](NC(=O)[C@@H](O)[C@H](N)Cc1ccccc1)C(=O)O [UBENIMEX], the IC50 [1] is reported as “Not Active”, the IC50 [2] is reported as “Not Active” and the IC50 [3] is reported as “Not Active”. For the same compound, the Ki [3] was “Not Active”, the IC50 [4] was “Not Active” and the Ki [4] was “Not Active”. The IC50 [5] was “Not Active”, the Ki [5] was “Not Active” and the IC50 [6] was “Not Active”. The Ki [6] was “Not Active”, the IC50 [7] was “Not Active” and the Ki [7] was “Not Active”. For the same compound, the IC50 ([8]; platelet) was “Not Active”, the IC50 [9] was “Not Active” and the IC50 [10] was “Not Active”.
In the case of COCCCOc1ccnc(C[S+]([O-])c2nc3ccccc3[nH]2)c1C (stereo not given) [RABEPRAZOLE], the IC50 [1] is reported as “Not Active”, the IC50 [2] is reported as “Not Active” and the IC50 [3] is reported as “Not Active”. The Ki [3] was “Not Active”, the IC50 [4] was “Not Active” and the Ki [4] was “Not Active”. For the same compound, the IC50 [5] was “Not Active”, the Ki [5] was “Not Active” and the IC50 [6] was “Not Active”. For the same compound, the Ki [6] was “Not Active”, the IC50 [7] was “Not Active” and the Ki [7] was “Not Active”. For the same compound, the IC50 ([8]; platelet) was “Not Active”, the IC50 [9] was “Not Active” and the IC50 [10] was “Not Active”.
With N[C@H](CSC(=S)NCc1ccccc1)C(=O)O the IC50 [1] was “Not Active”, the IC50 [2] was “Not Active” and the IC50 [3] was “Not Active”. The Ki [3] was “Not Active”, the IC50 [4] was “Not Active” and the Ki [4] was “Not Active”. For the same compound, the IC50 [5] was “Not Active”, the Ki [5] was “Not Active” and the IC50 [6] was “Not Active”. For the same compound, the Ki [6] was “Not Active”, the IC50 [7] was “Not Active” and the Ki [7] was “Not Active”. For the same compound, the IC50 ([8]; platelet) was “Not Active”, the IC50 [9] was “Not Active” and the IC50 [10] was “Not Active”.
With [H]/N=C(/N)N[C@H]1[C@H](O)[C@@H](O)[C@H](O[C@@H]2O[C@@H](C)[C@](O)(C=O)[C@H]2O[C@@H]2O[C@@H](CO)[C@H](O)[C@@H](O)[C@@H]2NC)[C@@H](N/C(N)=N\[H])[C@@H]1O [STREPTOMYCIN] the IC50 [1] was “Not Active”, the IC50 [2] was “Not Active” and the IC50 [3] was “Not Active”. For the same compound, the Ki [3] was “Not Active”, the IC50 [4] was “Not Active” and the Ki [4] was “Not Active”. For the same compound, the IC50 [5] was “Not Active”, the Ki [5] was “Not Active” and the IC50 [6] was “Not Active”. For the same compound, the Ki [6] was “Not Active”, the IC50 [7] was “Not Active” and the Ki [7] was “Not Active”. For the same compound, the IC50 ([8]; platelet) was “Not Active”, the IC50 [9] was “Not Active” and the IC50 [10] was “Not Active”.
For CO[C@H]1/C=C/O[C@@]2(C)Oc3c(C)c(O)c4c(c3C2=O)C2=NC3(CCN(CC(C)C)CC3)NC2=C(NC(=O)/C(C)=C\C=C\[C@H](C)[C@H](O)[C@@H](C)[C@@H](O)[C@@H](C)[C@H](OC(C)=O)[C@@H]1C)C4=O [RIFABUTIN], the IC50 [1] was “Not Active”, the IC50 [2] was “Not Active” and the IC50 [3] was “Not Active”. The Ki [3] was “Not Active”, the IC50 [4] was “Not Active” and the Ki [4] was “Not Active”. The IC50 [5] was “Not Active”, the Ki [5] was “Not Active” and the IC50 [6] was “Not Active”. The Ki [6] was “Not Active”, the IC50 [7] was “Not Active” and the Ki [7] was “Not Active”. The IC50 ([8]; platelet) was “Not Active”, the IC50 [9] was “Not Active” and the IC50 [10] was “Not Active”.
In the case of C[C@@H](N)[C@H]1CC[C@H](C(=O)Nc2ccncc2)CC1 [Y-27632], the IC50 [1] is reported as “Not Active”, the IC50 [2] is reported as “Not Active” and the IC50 [3] is reported as “Not Active”. The Ki [3] was “Not Active”, the IC50 [4] was “Not Active” and the Ki [4] was “Not Active”. The IC50 [5] was “Not Active”, the Ki [5] was “Not Active” and the IC50 [6] was “Not Active”. The Ki [6] was “Not Active”, the IC50 [7] was “Not Active” and the Ki [7] was “Not Active”. The IC50 ([8]; platelet) was “Not Active”, the IC50 [9] was “Not Active” and the IC50 [10] was “Not Active”.
